{"source": "patent US20220375548A1", "about": "“FRAGRANCE COMPOSITION TONALITY DETERMINATION METHOD, FRAGRANCE COMPOSITION DETERMINATION METHOD AND CORRESPONDING SYSTEMS” (FIRMENICH SA, priority 2019, published 2022)", "molecular_target": "T1, OR7A17 (Homo sapiens, UniProt O14581)", "T1 sequence (O14581 1-309)": "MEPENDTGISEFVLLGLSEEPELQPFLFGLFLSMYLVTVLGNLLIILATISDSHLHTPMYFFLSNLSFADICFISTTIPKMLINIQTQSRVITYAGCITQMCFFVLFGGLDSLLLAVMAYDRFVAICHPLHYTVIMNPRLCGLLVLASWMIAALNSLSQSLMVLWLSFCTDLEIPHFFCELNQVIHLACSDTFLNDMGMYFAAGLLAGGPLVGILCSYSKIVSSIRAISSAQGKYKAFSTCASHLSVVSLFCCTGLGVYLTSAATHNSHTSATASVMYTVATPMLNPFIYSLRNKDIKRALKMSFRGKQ", "assay": "odorant receptor activation (Example 3 in U.S. 62/911,096)", "assay_type": "cell-based", "conditions": "associated with blonde woody tonality", "text": "Non-limiting examples of an olfactory tonality include earthy, coconut, celery, hay etc. (see Example 1 in U.S. 62/911,096). For example, OR11A1 agonists all share a common earthy tonality even as they elicit an overall set of distinct tonalities (see Example 2 in U.S. 62/911,096). A volatile molecule may have greater than one tonality. For example, beta ionone has violet and blonde woody tonalities arising from the activation of OR5A1 and OR7A17, respectively (see Example 3 in U.S. 62/911,096).\nThe first relationship may be obtained by putting into contact a sample of volatile molecules with isolated ORs and by monitoring the activity of each said OR. The result of such an experiment may be stored inside a database cross referencing volatile molecule digital identifiers, representative of real volatile molecules, and the impact of said volatile molecule on the ORs monitored during the experiment.\nIndicators for monitoring the activity of olfactory receptors include, for example, a fluorescent calcium indicator dye, a calcium indicator protein (e.g. GCaMP, a genetically encoded calcium indicator), a fluorescent cAMP indicator, a cell mobilization assay, a cellular dynamic mass redistribution assay, a label-free cell based assay, a cAMP response element (CRE) mediated reporter protein, a biochemical cAMP HTRF assay, a beta-arrestin assay, or an electrophysiological recording. […]", "data": [{"smiles": "CC(=O)/C=C/C1=C(C)CCCC1(C)C", "note": "[beta ionone]", "values": [{"measurement": "activation of OR7A17", "value": "activation"}]}]}
